Experimental findings from patent US20220184008A1, “MODULATORS OF INTRACELLULAR CHLORIDE CONCENTRATION” (FONDAZIONE ISTITUTO ITALIANO DI TECNOLOGIA, priority 2019, published 2022) are described below.

As a reminder, the inhibition is the drop in the measured response relative to a control, in per cent.

Molecules are shown by their SMILES.

Assay [1] concerns the target T1, NKCC1 (Homo sapiens, UniProt P55011).
T1 construct: expressed in transfected cells; host or cells: HEK293
T1 sequence (P55011 1-1212): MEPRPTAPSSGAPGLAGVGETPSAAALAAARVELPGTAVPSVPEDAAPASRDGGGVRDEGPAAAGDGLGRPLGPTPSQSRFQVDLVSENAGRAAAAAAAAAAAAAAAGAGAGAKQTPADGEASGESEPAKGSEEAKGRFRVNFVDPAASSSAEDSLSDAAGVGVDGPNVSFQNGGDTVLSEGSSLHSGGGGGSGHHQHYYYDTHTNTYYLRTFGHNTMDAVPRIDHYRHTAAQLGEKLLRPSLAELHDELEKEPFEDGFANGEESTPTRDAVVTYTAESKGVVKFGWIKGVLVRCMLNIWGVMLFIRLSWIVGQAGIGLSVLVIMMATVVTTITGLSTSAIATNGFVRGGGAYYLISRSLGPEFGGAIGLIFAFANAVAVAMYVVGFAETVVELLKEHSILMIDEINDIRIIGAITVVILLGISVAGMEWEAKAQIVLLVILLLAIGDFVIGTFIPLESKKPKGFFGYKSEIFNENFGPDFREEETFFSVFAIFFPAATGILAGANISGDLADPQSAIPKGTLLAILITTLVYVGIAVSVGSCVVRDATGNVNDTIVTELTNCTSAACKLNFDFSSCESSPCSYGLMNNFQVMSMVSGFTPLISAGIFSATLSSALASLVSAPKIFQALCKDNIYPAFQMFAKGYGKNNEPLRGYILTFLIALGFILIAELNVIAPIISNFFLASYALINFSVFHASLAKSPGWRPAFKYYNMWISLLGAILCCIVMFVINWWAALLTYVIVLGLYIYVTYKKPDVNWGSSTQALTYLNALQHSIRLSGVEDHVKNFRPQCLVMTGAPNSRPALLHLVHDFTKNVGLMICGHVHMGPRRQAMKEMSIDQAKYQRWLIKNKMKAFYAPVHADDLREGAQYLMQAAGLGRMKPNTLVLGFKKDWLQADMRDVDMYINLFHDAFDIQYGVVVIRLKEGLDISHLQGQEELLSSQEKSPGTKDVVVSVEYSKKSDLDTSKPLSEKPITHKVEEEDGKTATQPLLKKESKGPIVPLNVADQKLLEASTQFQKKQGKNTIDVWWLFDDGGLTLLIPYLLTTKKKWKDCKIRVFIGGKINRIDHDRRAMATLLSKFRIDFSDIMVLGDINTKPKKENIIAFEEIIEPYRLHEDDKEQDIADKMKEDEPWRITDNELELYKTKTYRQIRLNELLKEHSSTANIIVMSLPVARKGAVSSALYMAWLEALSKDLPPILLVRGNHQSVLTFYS
The assay can be described thus: Chloride kinetic assay (Cl-sensitive YFP) in NKCC1-transfected HEK293 cells. Format: cell-based. As to conditions: 10 μM, NKCC1-transfected HEK293; for inhibition at 10 µM: read-out: NKCC1 Inhibition % 10 μM HEK Chloride YFP assay. As for the experimental part:
FIG. 1: In vitro testing of the NKCC1 inhibitors in the chloride kinetic assay a) Example traces obtained in the chloride kinetic assay on HEK cells transfected with the YFP (mock) or with YFP and NKCC1. The arrow indicates the addition of NaCl (final concentration 74 mM) used to initiate the flux assay. b) Quantification of the effect of bumetanide (10 μM and 100 μM) or furosemide (10 μM and 100 μM) in the chloride kinetic assay on mock or NKCC1-transfected HEK293 cells. Data represents mean±sem from 5 independent experiments. c) Quantification of the effect of bumetanide and furosemide and 2 selected compounds (3.8, 3.17) in the chloride kinetic assay on NKCC1-transfected HEK293 cells. Data represents mean±sem from 5 independent experiments, and they are represented as % of the controls. *P<0.05, **P<0.01, ***P<0.001 Kruskal-Wallis Anova (Dunn's Post hoc Test); ###P<0.001 two-tailed unpaired Student t-test.
To screen in vitro the compounds efficiency in blocking NKCC1, a functional NKCC1 transporter assay was performed by measuring variation of Cl^− ion concentration in the cell through a Cl^− sensitive membrane-tagged yellow fluorescent protein (mbYFPQS, Addgene). mbYFPQS fluorescence is inversely dependent on the concentration of Cl^− inside the cell thus allowing an indirect estimation of the Cl^− transporter activity. In particular, HEK293 cells were transfected with NKCC1 or mock construct (control) together with the Cl^− sensitive YFP. After 2 DIV, the cells were treated with bumetanide and furosemide (as positive controls) or with each of the tested compounds of the invention in a Cl^− free medium. After 30 min, the inhibitory activity of the compounds was tested by monitoring fluorescence upon application of NaCl (FIG. 1a). Transported by NKCC1, Cl binds the YFP, leading to a fluorescence decrease. […] With the Cl kinetic assay, the NKCC1 inhibitory activity of the selected compounds was tested (FIG. 1c).

Assay [2] deals with NKCC1. Put plainly: Calcium kinetic assay in primary cultures of immature hippocampal neurons. The class given is cell-based. As to conditions: 10 μM, immature neurons 3 DIV. As for the experimental part: FIG. 2: In vitro testing of the NKCC1 inhibitors in a calcium kinetic assay. a) Example traces of fluorescence levels upon application of GABA (100 μM) and KCl (90 mM) used to trigger calcium influx in primary neuronal cultures treated after 3 days in culture (3 DIV) with vehicle, bumetanide, furosemide and compounds 3.8, 3.13 and 3.17 in the calcium kinetic assay. b) Quantification of the average fluorescence increase upon GABA application normalized to the increase upon KCl application in neurons treated with bumetanide, furosemide and 3 exemplary compounds (3.8, 3.13, 3.17) (10 μM, 100 μM). Data represents mean±sem from 5 independent experiments, and they are presented as % of the control. *P<0.05, **P<0.01, ***P<0.001 Kruskal-Wallis Anova (Dunn's Post hoc Test).
Next, the compounds of the invention were tested for their ability to revert the depolarizing GABAergic signaling in immature neurons. This effect was indirectly measured as calcium influx into the cells with an in vitro calcium kinetic assay in primary cultures of hippocampal neurons. The calcium kinetic assay exploits the physiological, endogenous, high expression of NKCC1 in immature neurons, which causes depolarizing actions of GABA and can activate voltage-gated Ca^2+ channels. Thus, in immature neurons, a compound that blocks NKCC1 is predicted to inhibit Ca^2+ responses upon GABA application. Immature neurons were cultured for 3 days in vitro (3 DIV) and loaded for 15 min with a calcium-sensitive dye (Fluo4). Then, the neurons were treated with bumetanide and furosemide (as positive controls) or with each of the selected compounds for 15 min. As a functional readout, the fluorescence level was monitored in these cultures before and after application of GABA (100 μM, for 20 sec). To test for neuronal viability at the end of the experiment, KCl was applied (90 mM, for 40 sec), which strongly depolarizes neurons, causing high activation of voltage-gated Ca^2+ channels in live cells. To quantify how bumetanide, furosemide, and selected compounds influenced NKCC1 inhibition, the fluorescence values were normalized upon GABA application to the fluorescence levels upon KCl application in treated neurons.

Regarding `CNS(=O)(=O)c1cc(C(=O)O)ccc1NCCCCCCCC(F)(F)F` [Compound 3.10, 3-(methylsulfamoyl)-4-(8,8,8-trifluorooctylamino)benzoic acid], the “NKCC1 Inhibition % 10 μM HEK Chloride YFP assay” value in assay [1] (Table 1) and in assay [1] (Table 2) was “Inactive” in each case. Moreover, the “NKCC1 Inhibition % 10 μM Neurons Calcium kinetic assay” value in assay [2] (Table 1) and in assay [2] (Table 2) was 14% each time.

With `CN(C)S(=O)(=O)c1cc(C(=O)O)ccc1NCCCC(F)(F)F` [Compound 3.15, 3-(dimethylsulfamoyl)-4-(4,4,4 trifluorobutylamino) benzoic acid], the inhibition at 10 µM in assay [1] (Table 1) was 11%. Moreover, the “NKCC1 Inhibition % 10 μM Neurons Calcium kinetic assay” value in assay [2] (Table 1) and in assay [2] (Table 2) was “Inactive” in each case.

In the case of `CN(C)S(=O)(=O)c1cc(C(=O)O)ccc1NCCCCCC(F)(F)F` [Compound 3.16, 3-(dimethylsulfamoyl)-4-(6,6,6-trifluorohexylamino) benzoic acid], in assay [1] (Table 1), the inhibition at 10 µM stood at 17%. Moreover, the “NKCC1 Inhibition % 10 μM Neurons Calcium kinetic assay” value in assay [2] (Table 1) and in assay [2] (Table 2) was “Inactive” throughout.

Consider `COCCNc1ccc(C(=O)O)cc1S(=O)(=O)N(C)C` [Compound 3.18, 3-(dimethylsulfamoyl)-4-(2-methoxyethylamino)benzoic acid], for which the inhibition at 10 µM in assay [1] (Table 1) turned out to be 13%. In addition, the “NKCC1 Inhibition % 10 μM Neurons Calcium kinetic assay” value in assay [2] (Table 1) and in assay [2] (Table 2) was “Inactive” in each case.

In the case of `COCCCCNc1ccc(C(=O)O)cc1S(=O)(=O)N(C)C` [Compound 3.19, 3-(dimethylsulfamoyl)-4-(4-methoxybutylamino)benzoic acid], the inhibition at 10 µM in assay [1] (Table 1) came out at 6%. Moreover, the “NKCC1 Inhibition % 10 μM Neurons Calcium kinetic assay” value in assay [2] (Table 1) and in assay [2] (Table 2) was “Inactive” throughout.

Consider `COCCCCCCNc1ccc(C(=O)O)cc1S(=O)(=O)N(C)C` [Compound 3.20, 3-(dimethylsulfamoyl)-4-(6-methoxyhexylamino)benzoic acid], for which the “NKCC1 Inhibition % 10 μM HEK Chloride YFP assay” value in assay [1] (Table 1) and in assay [1] (Table 2) was “Inactive” throughout. The “NKCC1 Inhibition % 10 μM Neurons Calcium kinetic assay” value in assay [2] (Table 1) and in assay [2] (Table 2) was 20% each time.

`O=C(O)c1ccc(NCCCCCCCC(F)(F)F)c(S(=O)(=O)NC2CCCC2)c1` [Compound 3.21, 3-(cyclopentylsulfamoyl)-4-(8,8,8-trifluorooctylamino) benzoic acid]: the inhibition at 10 µM in assay [1] (Table 1) came out at 18%. Also, the “NKCC1 Inhibition % 10 μM Neurons Calcium kinetic assay” value in assay [2] (Table 1) and in assay [2] (Table 2) was 51% each time.

As to `O=C(O)c1ccc(NCCCCCCCC(F)(F)F)c(S(=O)(=O)NC2CCCCC2)c1` [Compound 3.22, 3-(cyclohexylsulfamoyl)-4-(8,8,8-trifluorooctylamino) benzoic acid], the inhibition at 10 µM in assay [1] (Table 1) was found to be 4%. The “NKCC1 Inhibition % 10 μM Neurons Calcium kinetic assay” value in assay [2] (Table 1) and in assay [2] (Table 2) was 54% in each case.

On to `O=C(O)c1ccc(NCCCCCCCC(F)(F)F)c(S(=O)(=O)N2CCCC2)c1` [Compound 5.5, 3-pyrrolidin-1-ylsulfonyl-4-(8,8,8-trifluorooctylamino) benzoic acid], for which, in assay [1] (Table 1), the inhibition at 10 µM turned out to be 2%. The “NKCC1 Inhibition % 10 μM Neurons Calcium kinetic assay” value in assay [2] (Table 1) and in assay [2] (Table 2) was 39% each time.

As for `CN(C)S(=O)(=O)c1cc(C#N)ccc1NCCCCCCCC(F)(F)F` [Compound 6.3, 5-cyano-N,N-dimethyl-2-(8,8,8-trifluorooctylamino) benzenesulfonamide], the inhibition at 10 µM in assay [1] (Table 1) is 20%.

Turning to `CN(C)S(=O)(=O)c1cc(C(=O)O)ccc1N1CCN(CCCCC(F)(F)F)CC1` [Compound 9.1, 3-(dimethylsulfamoyl)-4-[4-(5,5,5 trifluoropentyl)piperazin-1-yl] benzoic acid], the inhibition at 10 µM in assay [1] (Table 1) came to 3%.

For the molecule `CCOc1cc(NCCCCCCCC(F)(F)F)c(S(=O)(=O)N(C)C)cc1C(=O)O` [Compound 12.9], in assay [2] (Table 1), the “NKCC1 Inhibition % 10 μM Neurons Calcium kinetic assay” value worked out at 12.2%.

With `CN(C)S(=O)(=O)c1cc(C(=O)O)c(OC2CCCC2)cc1NCCCCCCCC(F)(F)F` [Compound 12.10], the “NKCC1 Inhibition % 10 μM Neurons Calcium kinetic assay” value in assay [2] (Table 1) is 26.6%.

Regarding `COc1cc(NCCCCCCCC(F)(F)F)c(S(=O)(=O)N(C)C)cc1C(=O)O` [Compound 13.1, 5-(N,N-dimethylsulfamoyl)-2-methoxy-4-((8,8,8-trifluorooctyl)amino)benzoic acid], the “NKCC1 Inhibition % 10 μM Neurons Calcium kinetic assay” value in assay [2] (Table 1) is 14.2%.

For `O=C(O)c1ccc(NCCCCCCCC(F)(F)F)c(S(=O)(=O)N2CCOCC2)c1` [Compound 14.3, 3-morpholinosulfonyl-4-((8,8,8-trifluorooctyl)amino)benzoic acid], the “NKCC1 Inhibition % 10 μM Neurons Calcium kinetic assay” value in assay [2] (Table 1) is 7.1%.

With `O=C(O)c1ccc(NCCCCCCCC(F)(F)F)c(S(=O)(=O)N2CCC(F)(F)CC2)c1` [Compound 14.4, 3-((4,4-difluoropiperidin-1-yl)sulfonyl)-4-((8,8,8-trifluorooctyl)amino)benzoic acid], the “NKCC1 Inhibition % 10 μM Neurons Calcium kinetic assay” value in assay [2] (Table 1) stood at 48.0%.
